Experimental data as given in patent US10759794B2, “2-phenyl-3-(piperazinomethyl)imidazo[1,2-A]pyridine derivatives as blockers of task-1 and task-2 channels, for the treatment of sleep-related breathing disorders” (BAYER PHARMA AKTIENGESELLSCHAFT, priority 2015, dated 2020).

How the values were obtained:
human TASK-3 = human TASK-3 (Homo sapiens (Human), UniProt Q9NPC2); experiment: Inhibition of recombinant TASK-3 in stably transfected CHO cells (voltage-sensitive dye, FLIPR); type: cell-based
Sequence of human TASK-3 (Q9NPC2 whole entry): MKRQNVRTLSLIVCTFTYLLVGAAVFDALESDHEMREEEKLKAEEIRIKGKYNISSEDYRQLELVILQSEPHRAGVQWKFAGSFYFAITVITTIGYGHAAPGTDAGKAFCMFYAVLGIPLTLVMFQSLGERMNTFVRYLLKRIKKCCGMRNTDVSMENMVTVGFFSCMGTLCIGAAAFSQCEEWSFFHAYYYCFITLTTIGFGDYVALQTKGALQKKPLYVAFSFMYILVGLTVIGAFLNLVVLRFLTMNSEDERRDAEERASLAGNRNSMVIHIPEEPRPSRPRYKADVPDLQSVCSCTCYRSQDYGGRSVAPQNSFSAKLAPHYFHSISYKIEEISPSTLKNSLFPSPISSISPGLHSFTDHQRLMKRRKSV
Procedure: (§1) B-2. Inhibition of Recombinant TASK-1 and TASK-3 In Vitro
(§2) The investigations on the inhibition of the recombinant TASK-1 and TASK-3 channels were carried out using stably transfected CHO cells. Here, the compounds according to the invention were tested with administration of 40 mM of potassium chloride in the presence of a voltage-sensitive dye using the method described in detail in the following references [Whiteaker et al., Validation of FLIPR membrane potential dye for high-throughput screening of potassium channel modulators, J. Biomol. Screen. 6 (5), 305-312 (2001); Molecular Devices FLIPR Application Note: Measuring membrane potential using the FLIPR® membrane potential assay kit on Fluorometric Imaging Plate Reader (FLIPR®) systems, http://www.moleculardevices.com/reagents-supplies/assay-kits/ion-channels/flipr-membrane-potential-assay-kits]. The activity of the test substances was determined as their ability to inhibit a depolarization induced in the recombinant cells by 40 mM potassium chloride. The concentration which can block half of this depolarization is referred to as IC50.

human TASK-1 = human TASK-1 (Homo sapiens (Human), UniProt O14649); experiment: Inhibition of recombinant TASK-1 in stably transfected CHO cells (voltage-sensitive dye, FLIPR); type: cell-based
Sequence of human TASK-1 (O14649 whole entry): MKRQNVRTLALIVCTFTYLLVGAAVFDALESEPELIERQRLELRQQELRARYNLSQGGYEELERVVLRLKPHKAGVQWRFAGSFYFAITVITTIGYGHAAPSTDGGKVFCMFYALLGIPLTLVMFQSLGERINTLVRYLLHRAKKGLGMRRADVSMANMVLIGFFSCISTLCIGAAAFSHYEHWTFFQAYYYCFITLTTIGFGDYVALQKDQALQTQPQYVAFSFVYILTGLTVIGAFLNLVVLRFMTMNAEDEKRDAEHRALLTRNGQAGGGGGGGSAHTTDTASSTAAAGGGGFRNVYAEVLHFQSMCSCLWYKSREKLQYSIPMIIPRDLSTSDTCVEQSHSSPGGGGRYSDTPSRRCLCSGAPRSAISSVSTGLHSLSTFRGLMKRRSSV
Procedure: as §1, §2

[1] = depolarization induced by 40 mM potassium chloride, Table 2A
[2] = 40 mM potassium chloride, comparative compounds, Table 2B

Row | SMILES | IC50 (human TASK-3; [1]) [nM] | IC50 (human TASK-1; [1]) [nM] | IC50 (human TASK-3; [2]) [nM] | IC50 (human TASK-1; [2]) [nM]
1 | O=C(c1cccc(OCC(F)(F)F)n1)N1CCN(Cc2c(-c3ccc(Cl)cc3)nc3ccccn23)CC1 [Example 38] | 30 | 1000 |  | 
2 | N#Cc1ccccc1C(=O)N1CCN(Cc2c(-c3ccc(Cl)cc3)nc3ccccn23)CC1 [Example 32] | 130 | 430 |  | 
3 | COc1ccc(Cl)c(C(=O)N2CCN(Cc3c(-c4ccc(Cl)cc4)nc4ccccn34)CC2)n1 [Example 43] | 10 | 220 |  | 
4 | CC(C)(C)c1ccc(-c2nc3ccccn3c2CN2CCN(C(=O)c3ccccc3F)CC2)cc1 [Example 65] | 750 | 1100 |  | 
5 | Cc1ccc(-c2nc3ccccn3c2CN2CCN(C(=O)C3CCCCC3)CC2)cc1 [Example 57] | 2900 | 962 |  | 
6 | O=C(c1cnccn1)N1CCN(Cc2c(-c3ccc(Cl)cc3)nc3ccc(C4CC4)cn23)CC1 [WO 2014/187922 Example 263, reference compound] |  |  | 5700 | 30000
7 | O=C(C1CCCCC1)N1CCN(Cc2c(-c3ccc(Br)cc3)nc3ccccn23)CC1 [Example 9] | 200 | 232 |  | 
8 | O=C(c1ccccc1F)N1CCN(Cc2c(-c3ccc(Cl)cc3)nc3ccccn23)CC1 [Example 7, (4-{[2-(4-Chlorophenyl)imidazo [1,2-a]pyridin-3-yl]methyl}piperazin-1-yl)(2-fluorophenyl)methanone] | 98 | 350 |  | 
9 | COc1ccc(F)cc1C(=O)N1CCN(Cc2c(-c3ccc(Br)cc3)nc3ccccn23)CC1 [Example 13] | 350 | 672 |  | 
10 | O=C(C1CCC1)N1CCN(Cc2c(-c3ccc(F)cc3)nc3ccccn23)CC1 [Example 49] | 1700 | 1830 |  | 
11 | O=C(c1cccc(OC(F)F)n1)N1CCN(Cc2c(-c3ccc(Cl)cc3)nc3ccccn23)CC1 [Example 44] | 17 | 270 |  | 
12 | O=C(c1cc(F)ccc1Cl)N1CCN(Cc2c(-c3ccc(F)cc3)nc3ccccn23)CC1 [Example 51] | 1000 | 1890 |  | 
13 | O=C(c1ccccc1Cl)N1CCN(Cc2c(-c3ccc(Cl)cc3)nc3ccc(-c4ccccc4)cn23)CC1 [WO 2014/187922 Example 64, reference compound] |  |  | 2200 | 30000
14 | COc1ccc(C)c(C(=O)N2CCN(Cc3c(-c4ccc(Cl)cc4)nc4ccccn34)CC2)n1 [Example 72] | 3 | 71 |  | 
15 | O=C(c1cccc(OC2CCC2)n1)N1CCN(Cc2c(-c3ccc(Cl)cc3)nc3ccccn23)CC1 [Example 41] | 190 | 1300 |  | 
16 | COc1cccc(-c2nc3ccccn3c2CN2CCN(C(=O)C3CCC3)CC2)c1 [WO 2014/187922 Example 208, reference compound] |  |  | 30000 | 30000
17 | O=C(c1ccccn1)N1CCN(Cc2c(-c3ccc(Cl)cc3)nc3ccccn23)CC1 [Example 26] | 590 | 708 |  | 
18 | O=C(c1ccncc1)N1CCN(Cc2c(-c3ccc(Cl)cc3)nc3ccc(C4CC4)cn23)CC1 [WO 2014/187922 Example 196, reference compound] |  |  | 30000 | 30000
19 | COc1cccc(C(=O)N2CCN(Cc3c(-c4ccc(Cl)cc4)nc4ccccn34)CC2)c1 [Example 19] | 300 | 515 |  | 
20 | O=C(c1cc(F)ccc1Cl)N1CCN(Cc2c(-c3ccc(Br)cc3)nc3ccccn23)CC1 [Example 6, (4-{[2-(4-Bromophenyl)imidazo[1,2-a]pyridin-3-yl]methyl}piperazin-1-yl)(2-chloro-5-fluorophenyl)methanone] | 360 | 500 |  | 
21 | O=C(C1CCCCC1)N1CCN(Cc2c(-c3ccc(F)cc3)nc3ccccn23)CC1 [Example 8, (4-{[2-(4-Fluorophenyl)imidazo[1,2-a]pyridin-3-yl]methyl}piperazin-1-yl)(cyclohexyl)methanone] | 2500 | 893 |  | 
22 | CC(C)c1ccccc1C(=O)N1CCN(Cc2c(-c3ccc(Cl)cc3)nc3ccccn23)CC1 [Example 34] | 63 | 400 |  | 
23 | O=C(c1cccc(C(F)(F)F)c1)N1CCN(Cc2c(-c3ccc(Cl)cc3)nc3ccccn23)CC1 [Example 25] | 820 | 1900 |  | 
24 | COc1ccc(C)c(C(=O)N2CCN(Cc3c(-c4ccc(Br)cc4)nc4ccccn34)CC2)n1 [Example 74] | 9.1 | 67 |  | 
25 | O=C(C1CCCCC1)N1CCN(Cc2c(-c3ccc(Cl)cc3)nc3ccccn23)CC1 [Example 17] | 510 | 774 |  | 
26 | O=C(c1cccc(F)c1)N1CCN(Cc2c(-c3ccc(Cl)cc3)nc3ccc(C4CC4)cn23)CC1 [WO 2014/187922 Example 178, reference compound] |  |  | 4800 | 30000
27 | COc1cccc(C(=O)N2CCN(Cc3c(-c4ccc(C#N)cc4)nc4ccccn34)CC2)n1 [Example 61] | 1400 | 2050 |  | 

Row | SMILES | IC50 (human TASK-3; [1]) [nM] | IC50 (human TASK-1; [1]) [nM] | IC50 (human TASK-3; [2]) [nM] | IC50 (human TASK-1; [2]) [nM]
28 | COc1ccc(F)cc1C(=O)N1CCN(Cc2c(-c3ccc(F)cc3)nc3ccccn23)CC1 [Example 50] | 1400 | 1620 |  | 
29 | CC(C)(C)c1ccc(-c2nc3ccccn3c2CN2CCN(C(=O)C3CCCC3)CC2)cc1 [Example 66] | 830 | 1500 |  | 
30 | N#Cc1ccc(-c2nc3ccccn3c2CN2CCN(C(=O)c3ccccc3F)CC2)cc1 [Example 60] | 4600 | 1700 |  | 
31 | COc1ccc(F)cc1C(=O)N1CCN(Cc2c(-c3ccc(Cl)cc3)nc3ccccn23)CC1 [Example 21] | 150 | 454 |  | 
32 | O=C(C1CCC1)N1CCN(Cc2c(-c3ccc(Br)cc3)nc3ccccn23)CC1 [Example 11] | 240 | 378 |  | 
33 | O=C(C1CCC1)N1CCN(Cc2c(-c3ccc(Cl)cc3)nc3ccccn23)CC1 [Example 18] | 120 | 242 |  | 
34 | COc1ccc(C)c(C(=O)N2CCN(Cc3c(-c4ccc(C(C)(C)C)cc4)nc4ccccn34)CC2)n1 [Example 73] | 17 | 170 |  | 
35 | O=C(C1CCCO1)N1CCN(Cc2c(-c3ccc(Cl)cc3)nc3ccccn23)CC1 (stereo not shown) [Example 35] | 790 | 1250 |  | 
36 | COc1cccc(C(=O)N2CCN(Cc3c(-c4ccc(Br)cc4)nc4ccccn34)CC2)c1 [Example 5, (4-{[2-(4-Bromophenyl)imidazo[1,2-a]pyridin-3-yl]methyl}piperazin-1-yl)(3-methoxyphenyl)methanone] | 380 | 827 |  | 
37 | COc1ccc(F)c(C(=O)N2CCN(Cc3c(-c4ccc(C#N)cc4)nc4ccccn34)CC2)c1 [Example 70] | 350 | 1800 |  | 
38 | Cc1ccc(F)cc1C(=O)N1CCN(Cc2c(-c3ccc(Cl)cc3)nc3ccccn23)CC1 [Example 23] | 160 | 685 |  | 
39 | Cc1ccc(F)cc1C(=O)N1CCN(Cc2c(-c3ccc(Br)cc3)nc3ccccn23)CC1 [Example 15] | 380 | 1170 |  | 
40 | CC(C)Oc1cccc(C(=O)N2CCN(Cc3c(-c4ccc(Cl)cc4)nc4ccccn34)CC2)c1 [Example 31] | 1300 | 2100 |  | 
41 | CC(C)c1cccc(C(=O)N2CCN(Cc3c(-c4ccc(Cl)cc4)nc4ccccn34)CC2)c1 [Example 33] | 2000 | 2500 |  | 
42 | COc1cccc(C(=O)N2CCN(Cc3c(-c4ccc(C(C)(C)C)cc4)nc4ccccn34)CC2)n1 [Example 64] | 450 | 510 |  | 
43 | CC(C)c1ccc(-c2nc3ccccn3c2CN2CCN(C(=O)c3ccccc3F)CC2)cc1 [Example 53] | 1000 | 2840 |  | 
44 | N#Cc1ccc(-c2nc3ccccn3c2CN2CCN(C(=O)C3CCCC3)CC2)cc1 [Example 62] | 3100 | 1200 |  | 
45 | COc1ccccc1C(=O)N1CCN(Cc2c(-c3ccc(C)cc3)nc3ccccn23)CC1 [Example 58] | 1900 | 1910 |  | 
46 | COc1ccc(F)c(C(=O)N2CCN(Cc3c(-c4ccc(Cl)cc4)nc4ccccn34)CC2)c1 [Example 27] | 120 | 590 |  | 
47 | O=C(c1cccc(OC2CCOCC2)n1)N1CCN(Cc2c(-c3ccc(Cl)cc3)nc3ccccn23)CC1 [Example 46] | 240 | 1200 |  | 
48 | COc1cc(C)cc(C(=O)N2CCN(Cc3c(-c4ccc(Cl)cc4)nc4ccccn34)CC2)n1 [Example 40] | 770 | 1000 |  | 
49 | O=C(c1cccc(OC(F)(F)F)n1)N1CCN(Cc2c(-c3ccc(Cl)cc3)nc3ccccn23)CC1 [Example 67, (4-{[2-(4-Chlorophenyl)imidazo [1,2-a]pyridin-3-yl]methyl}piperazin-1-yl) [6-(trifluoromethoxy)pyridin-2-yl]methanone] | 9.4 | 42 |  | 
50 | COc1ccc(F)c(C(=O)N2CCN(Cc3c(-c4ccc(Cl)cc4)nc4ccccn34)CC2)n1 [Example 68, (4-{[2-(4-Chlorophenyl)imidazo[1,2-a]pyridin-3-yl]methyl}piperazin-1-yl)(3-fluoro-6-methoxypyridin-2-yl)methanone] | 5.2 | 93 |  | 
51 | Cc1ccc(-c2nc3ccccn3c2CN2CCN(C(=O)C3CCCC3)CC2)cc1 [Example 56] | 700 | 642 |  | 
52 | O=C(C1CCCCO1)N1CCN(Cc2c(-c3ccc(Cl)cc3)nc3ccccn23)CC1 (stereo not shown) [Example 30] | 400 | 1800 |  | 
53 | COc1ccc(Cl)c(C(=O)N2CCN(Cc3c(-c4ccc(Cl)cc4)nc4ccccn34)CC2)c1 [Example 29] | 99 | 1200 |  | 
